Test results reported in article PMC4085599, “Preliminary Studies on Validation of Calu-3 Cell Line as a Model for Screening Respiratory Mucosa Irritation and Toxicity” (Pharmaceutics, 2014).
Like-named read-outs stand apart in the source and are kept apart here.

Assays:
[1] = MTT cell viability assay on Calu-3 cells after exposure to test solutions; format: cell-based, Human; settings: human, 60 min incubation, MTT, relative to negative control, n = 4, read-out: Calu-3 %Viability ± SD; for viability at 60 min, 0.2 % w/v: 0.2% w/v test solution; for viability at 60 min, 1 % w/v: 1.0% w/v test solution
Description: (§1) The Calu-3 cells were used at passages 5–10. They were cultured in 96-well plates (Fisher Scientific) in 1:1 DMEM/F-12 supplemented with 10% FBS, 1% Glutamax®, 100 U/mL penicillin, and […] streptomycin using our previously described method. The tissue culture medium was changed every two days.
(§2) Irritant selection, concentration and exposure time were based on mucociliary clearance time and published work in which the compounds were used. […] In order to provide a basis for comparison with other published work using other models three concentrations of the chemicals were selected (0.2%, 0.4% and 1.0%). To initiate the experiments, the cells were washed 3 times with PBS and allowed to equilibrate in 100 µL of buffered DMEM/F-12 (without phenol red) for 30 min. […] Cells were observed under the microscope for detachment before discarding the test solutions. Subsequently, the effect of the test compounds on the cells was determined using MTT assay.
(§3) Cell viability screening was based on cellular mitochondrial dehydrogenase (MDH) activity, measured by MTT reduction and conversion to blue formazan salt that was quantified after extraction from cells. MTT was used for predicting respiratory irritation because several studies have shown correlation between reduction in cell viability, decrease in epithelial electrical resistance and increases in biomarkers such as IL-1α and IL-1β. Cells grown in 96-well plates were used for the studies. After exposure of the cells to the solution of test compounds, the solutions were discarded and 100 μL of MTT (5.0 mg/mL) added to each well and incubated for 3 h at 37 °C. Subsequently, the MTT solution was removed and replaced with 100 μL isopropyl alcohol. The plates were then wrapped in aluminium foil and incubated for 2 h at 37 °C in order to extract formazan from the cells. Extracted formazan salt was quantified spectrophotometrically at 570 nm using Synergy™ HT multimode microplate reader (BioTek Instruments Incorporated). The absorbance of isopropyl alcohol (100 μL) was used as blank. The reduction of cell viability in treated cells was compared to negative control (cells incubated with DMEM/F-12) and expressed as a percentage.
(§4) Data acceptance criteria, calculation steps, interpretation and prediction model was done using the ECVAM Skin irritation Validation Study as contained in Standard Operating Procedure of Validation of the EpiSkin™ Test Method ^15 min–42 h for the prediction of acute skin irritation of chemicals. This was chosen because the model, as well as the cell viability assay method (MTT) has been accepted by intergovernmental agencies as being able to distinguish between irritants and non-irritants. However, we modified drug exposure time to reflect respiratory route of administration (15–60 min). […] Test compounds with mean relative viability values of 50% and below were considered irritant (I); those above 50% were considered non-irritant (NI) according to the ECVAM protocol.

Calu-3 cells = assay: as above; format: cell-based, Human; settings: for Calu-3 model prediction (irritant if viability 50% and below) compared with European Union class / Calu-3 cells killed: 60 min exposure; for Calu-3 model prediction (irritant if viability 50% and below) compared with European Union class: ECVAM protocol; for Calu-3 %Viability ± SD: 60 min incubation, MTT, relative to negative control, n = 4; for Calu-3 cells killed: 0.2% w/v
Description: as §1, §2, §3, §4

[2] = set-up: method as in earlier work; settings: ref [19],[20], cited from earlier work
eye = test system: eye; set-up: method as in PMID 12140180; settings: ECETOC eye irritation data bank, ref [12], cited from earlier work
Arion lusitanicus = test system: Arion lusitanicus; set-up: method as in Adriaens and Remon (2002) [12]; settings: slug mucosal irritation model; ref Adriaens and Remon (2002) [12]; cited from earlier work
[3] = tick = compound belongs to this class

COCC(O)CO (centres unmarked) [3-Methoxy-1,2-propanediol]
viability at 60 min, 0.2 % w/v ([1]; Calu-3 cells): 92.6 ± 4.1%
viability at 60 min, 1 % w/v ([1]; Calu-3 cells): 90.7 ± 4.3%
Calu-3 model prediction (irritant if viability 50% and below) compared with European Union class (Calu-3 cells; 0.2% w/v test solution): correctly predicted
Log p Octanol–Water [2]: −1.20
European Union Irritation Class: Non-Irritating (eye; [3]): √

CC(C)=O [Acetone]
Calu-3 model prediction (irritant if viability 50% and below) compared with European Union class (Calu-3 cells; 0.2% w/v test solution): false negative
Calu-3 %Viability ± SD (Calu-3 cells; 0.2% w/v test solution): 100.4 ± 13.7%
Calu-3 %Viability ± SD (Calu-3 cells; 0.2% w/v test solution, listed as acetone): no significant effect on the cell viability
Calu-3 model prediction (irritant if viability 50% and below) compared with European Union class (Calu-3 cells; 1.0% w/v test solution): false negatives
Calu-3 %Viability ± SD (Calu-3 cells; 1.0% w/v test solution): 95.4 ± 16.5%
Log p Octanol–Water [2]: −0.24
Log p Octanol–Water ([2]; listed as acetone): negative Log p values
European Union Class (eye; as listed in Table 2): R36
European Union Class (eye; as listed in Table 3): R36
European Union Irritation Class: R36 Irritating to Eye (eye; [3]): √
SMI model prediction compared with European Union class (Arion lusitanicus): false negative

CCCCCCCCCCCCCCCC[n+]1ccccc1 [Cetylpyridinium bromide]
viability at 60 min, 0.2 % w/v ([1]; Calu-3 cells): 8.1 ± 1.1%
viability at 60 min, 1 % w/v ([1]; Calu-3 cells): 5.4 ± 0.6%
viability at 60 min, 1 % w/v [1]: < 17%
Calu-3 model prediction (irritant if viability 50% and below) compared with European Union class (Calu-3 cells; 0.2% w/v test solution): correctly predicted
Calu-3 model prediction (irritant if viability 50% and below) compared with European Union class (Calu-3 cells; 1.0% w/v test solution): correctly predicted
Log p Octanol–Water [2]: 1.83
European Union Class (eye; as listed in Table 2): R41
European Union Class (eye; as listed in Table 3): R41
European Union Irritation Class: R41 Risk of Serious Damage to Eye (eye; [3]): √
SMI model prediction compared with European Union class (Arion lusitanicus): correct predictions

CC(=O)CC(C)C [Methyl isobutyl ketone]
viability at 60 min, 0.2 % w/v ([1]; Calu-3 cells): 73.2 ± 7.4%
viability at 60 min, 1 % w/v ([1]; Calu-3 cells): 90.3 ± 7.1%
Calu-3 model prediction (irritant if viability 50% and below) compared with European Union class (Calu-3 cells; 0.2% w/v test solution): correctly identified as non-irritant
Calu-3 %Viability ± SD (Calu-3 cells; 0.2% w/v test solution): no significant effect on the cell viability
European Union Irritation Class: Non-Irritating (eye; [3]): √
SMI model prediction compared with European Union class (Arion lusitanicus): wrongly classified

CCCCCCCCCCCCOS(=O)(=O)[O-].[Na+] [Sodium dodecyl sulphate USP]
Calu-3 model prediction (irritant if viability 50% and below) compared with European Union class (Calu-3 cells; 0.2% w/v test solution): correctly predicted
Calu-3 %Viability ± SD (Calu-3 cells; 0.2% w/v test solution): 4.3 ± 0.1%
Calu-3 cells killed (Calu-3 cells): more than 90%
Calu-3 model prediction (irritant if viability 50% and below) compared with European Union class (Calu-3 cells; 1.0% w/v test solution): correctly predicted
Calu-3 %Viability ± SD (Calu-3 cells; 1.0% w/v test solution): 9.0 ± 0.1%
Calu-3 %Viability ± SD (Calu-3 cells; 1.0% w/v test solution, listed as sodium dodecyl sulphate USP): less than 17%
Log p Octanol–Water [2]: 1.60
European Union Class (eye; as listed in Table 2): R36
European Union Class (eye; as listed in Table 3): R36
European Union Irritation Class: R36 Irritating to Eye (eye; [3]): √
SMI model prediction compared with European Union class (Arion lusitanicus): over-predictions

Triton X-100
Calu-3 model prediction (irritant if viability 50% and below) compared with European Union class (Calu-3 cells; 0.2% w/v test solution): correctly predicted
Calu-3 %Viability ± SD (Calu-3 cells; 0.2% w/v test solution): 3.5 ± 0.5%
Calu-3 cells killed (Calu-3 cells): more than 90%
Calu-3 model prediction (irritant if viability 50% and below) compared with European Union class (Calu-3 cells; 1.0% w/v test solution): correctly predicted
Log p Octanol–Water [2]: 4.15
European Union Class (eye; as listed in Table 2): R36
European Union Class (eye; as listed in Table 3): R36
European Union Irritation Class: R36 Irritating to Eye (eye; [3]): √
SMI model prediction compared with European Union class (Arion lusitanicus): over-predictions

Tween 20
Calu-3 model prediction (irritant if viability 50% and below) compared with European Union class (Calu-3 cells; 0.2% w/v test solution): correctly predicted
Calu-3 %Viability ± SD (Calu-3 cells; 0.2% w/v test solution): 57.1 ± 8.1%
Calu-3 model prediction (irritant if viability 50% and below) compared with European Union class (Calu-3 cells; 1.0% w/v test solution): false positive
Calu-3 %Viability ± SD (Calu-3 cells; 1.0% w/v test solution): 43.9 ± 2.5%
Log p Octanol–Water [2]: 2.39
European Union Irritation Class: Non-Irritating (eye; [3]): √
SMI model prediction compared with European Union class (Arion lusitanicus): correct predictions
